Measurements from patent publication US8975086B2, “Method for treating or preventing bladder cancer using the DEPDC1 polypeptide” (OncoTherapy Science, Inc., priority 2008, dated 2015).
Where a SMILES comes first, the peptide text is derived from it.

Columns and labels:
ZNF224 transcript = assay: Semiquantitative RT-PCR of knockdown effect of ZNF224 siRNA expression vectors in UM-UC-3 cells; type: cell-based, human; conditions: compared with si-EGFP control
Procedure: It has been previously established a vector-based RNA interference (RNAi) system, psiU6BX3.0 that was designed to express small interfering RNAs (siRNA) in mammalian cells (Shimokawa T, et al., Cancer Res 2003 63:6116-20). Plasmids designed to express siRNA to ZNF224 were prepared by cloning of double-stranded oligonucleotides into the BbsI site of psiU6BX vectors. The target sequences of the synthetic oligonucleotides for RNAi were as follows:
si-ZNF224#2: 5′-CCGCAGGAACACATCAAGA-3′ (SEQ ID NO: 10) for the ZNF224-specific sequence. DNA sequences of all constructs were confirmed by DNA sequencing. […] To evaluate the knockdown effect of siRNAs by semi-quantitative RT-PCR with specific primers (see below), total RNAs were extracted from the transfected cells after 4-day incubation with neomycin (Geneticin, Invitrogen). […]
5′-[…]-3′ (SEQ ID NO: 13) and 5′-[…]-3′ (SEQ ID NO: 14) for GAPDH as a quantitative control. The transfected UM-UC-3 cells were cultured for 21 or 14 days in the presence of 1.0 mg/ml of neomycin, and the number of colonies were counted by Giemsa staining. Viability of UM-UC-3 cells was evaluated by 3-(4,5-dimethylthiazol-2-yl)-2,5-diphenyltetrazolium bromide (MTT) assay at 14 days after the treatment of neomycin with cell counting kit-8 according to manufacturer's recommendation (Wako, Osaka, Japan). […]

UM-UC-3 cells [1] = assay: MTT and colony-formation assays of UM-UC-3 cells transfected with siRNA expression vectors; type: cell-based, human; conditions: UM-UC-3 cells transfected with siRNA expression vector, neomycin selection
Description: si-ZNF224#2: 5′-CCGCAGGAACACATCAAGA-3′ (SEQ ID NO: 10) for the ZNF224-specific sequence. DNA sequences of all constructs were confirmed by DNA sequencing. Eight-micrograms each of siRNA-expression vector were transfected into UM-UC-3 cells (1×10^6 cells per 10 cm-dish), respectively, using FuGENE6 transfection reagent (Roche) according to the supplier's recommendations. To evaluate the knockdown effect of siRNAs by semi-quantitative RT-PCR with specific primers (see below), total RNAs were extracted from the transfected cells after 4-day incubation with neomycin (Geneticin, Invitrogen). The specific primer sets for RT-PCR are as follows; 5′-[…]-3′ (SEQ ID NO: 11) and 5′-[…]-3′ (SEQ ID NO: 12) for ZNF224;
5′-[…]-3′ (SEQ ID NO: 13) and 5′-[…]-3′ (SEQ ID NO: 14) for GAPDH as a quantitative control. The transfected UM-UC-3 cells were cultured for 21 or 14 days in the presence of 1.0 mg/ml of neomycin, and the number of colonies were counted by Giemsa staining. Viability of UM-UC-3 cells was evaluated by 3-(4,5-dimethylthiazol-2-yl)-2,5-diphenyltetrazolium bromide (MTT) assay at 14 days after the treatment of neomycin with cell counting kit-8 according to manufacturer's recommendation (Wako, Osaka, Japan). Absorbance at 570 nm wavelength was measured with a Microplate Reader 550 (Bio-Rad, Hercules, Calif.). These experiments were performed in triplicate.

NHDF-Ad cells = assay: MTT assay of cell viability of normal human dermal fibroblasts treated with peptide; type: cell-based; conditions: DEPDC1 and ZNF224 hardly detectable
Procedure: (§1) UM-UC-3 and normal human dermal fibroblast-derived NHDF-Ad cell lines were incubated with the 11R peptides at the concentration of 0, 1, 2, or 3 micromol/L for 5 days. Each peptide was added at every 24 hours at the appropriate concentrations and the viability of cells was evaluated by MTT assay at every day after the treatment.
(§2) To examine the effect of DEPDC1611-628 peptide on cell growth of UM-UC-3 and NHDF cells, the cells were incubated with the DEPDC1611-628 or scramble peptides at the concentration of 0, 1, 2, or 3 micro M for 5 days, respectively. Each peptide was added at every 24 hours at the appropriate concentrations and the viability of cells was evaluated by MTT assay every day. Absorbance at 570 nm wavelength was measured with a Microplate Reader 550 (Bio-Rad). These experiments were performed in triplicate.

UM-UC-3 cells [2] = assay: MTT assay of cell viability of UM-UC-3 bladder cancer cells treated with 11R peptides; type: cell-based, human; conditions: for cell viability measured by MTT assay: UM-UC-3 cells, peptide 1, 2 or 3 micro M added every 24 hours for 5 days
Procedure: as §1, §2

DEPDC1-ZNF224 complex = molecular target: T1, DEPDC1-ZNF224 complex (Homo sapiens, UniProt Q9NZL3, H562R/M118V); assay: Immunoprecipitation of exogenous DEPDC1-HA and ZNF224-FLAG complex in peptide-treated COS7 cells; type: cell-based; conditions: for complex formation of DEPDC1-HA and ZNF224-FLAG (immunoprecipitation): four peptides at 3 micro M added 6 hours after transfection, twenty-four hours later; for complex formation between exogenously expressed DEPDC1-HA and ZNF224-Flag (immunoprecipitation): six peptides added 6 hours after transfection, immunoprecipitation fifteen hours later
T1 construct: expressed in transfected cells; host or cells: COS7 cells, transiently co-transfected (pCAGGS-type vectors)
T1 sequence (Q9NZL3 whole entry M118V/H562R, one chain of several): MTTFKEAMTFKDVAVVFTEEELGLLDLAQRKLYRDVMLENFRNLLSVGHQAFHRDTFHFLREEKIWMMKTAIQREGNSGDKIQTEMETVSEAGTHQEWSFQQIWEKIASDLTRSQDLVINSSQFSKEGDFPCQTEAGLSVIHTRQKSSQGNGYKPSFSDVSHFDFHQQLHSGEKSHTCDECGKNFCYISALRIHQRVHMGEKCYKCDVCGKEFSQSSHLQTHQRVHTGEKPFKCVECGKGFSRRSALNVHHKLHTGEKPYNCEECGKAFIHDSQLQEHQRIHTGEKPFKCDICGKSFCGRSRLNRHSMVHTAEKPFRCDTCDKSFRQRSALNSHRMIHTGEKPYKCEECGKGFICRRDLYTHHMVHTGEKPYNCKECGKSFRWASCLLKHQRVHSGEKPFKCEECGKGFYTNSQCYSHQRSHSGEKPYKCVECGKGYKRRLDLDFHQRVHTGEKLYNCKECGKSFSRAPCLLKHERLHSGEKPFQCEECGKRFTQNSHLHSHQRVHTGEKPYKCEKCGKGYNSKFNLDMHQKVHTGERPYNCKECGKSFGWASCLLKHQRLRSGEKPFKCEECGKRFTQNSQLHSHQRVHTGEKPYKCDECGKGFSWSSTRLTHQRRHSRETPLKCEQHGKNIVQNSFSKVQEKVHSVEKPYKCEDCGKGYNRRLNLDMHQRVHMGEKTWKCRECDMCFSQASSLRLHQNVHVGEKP
Procedure: To confirm the interaction between DEPDC1 and ZNF224 in bladder cancer cells and identify the ZNF224-binding region in DEPDC1, the immunoprecipitation experiment was carried out as follows. First, it was confirmed interaction between endogenous DEPDC1 and exogenous ZNF224 by immunoprecipitation experiments using anti-DEPDC1 polyclonal antibody for immunoprecipitation and anti-FLAGM2 antibody (Amersham) for immunoblotting. To further determine the ZNF224-binding region in DEPDC1, it was cloned six partial constructs of DEPDC1 (DEPDC11-147, DEPDC1141-300, DEPDC1177-597, DEPDC1300-669, DEPDC1587-740 and DEPDC1654-811) into appropriate sites of COOH-terminal HA-tagged pCAGGS vector. The nucleotide sequence of each clones were determined with an ABI Prism 3700 DNA sequencer (Applied Biosystems, Foster City, Calif.), using each primer. Cell extracts from Cos7 cell line, transfected with each of plasmids expressing one of these six partial segments of DEPDC1, were precleared by incubation at 4 degrees C. for 1 hour with 100 micro 1 of protein G-agarose beads in final volumes of 2 mL of immunoprecipitation buffer (0.5% NP40, 50 mmol/L Tris-HCl, 150 mmol/L NaCl) in the presence of proteinase inhibitor. After centrifugation at 1,000 rpm for 5 minutes at 4 degrees C., the supernatants were incubated at 4 degrees C. with anti-HA rat for 1 hours. After the beads were collected from each sample by centrifugation at 5,000 rpm for 2 minutes and washed six times with 1 mL of immunoprecipitation buffer, the washed beads were re-suspended in 50 uL of Laemmli sample buffer and boiled for 3 minutes before the proteins were separated on 10% SDS-PAGE gels. Immunoblot was done using anti-HA rat antibody and anti-FLAGM2 monoclonal antibody, respectively (Sigma-Aldrich Co., St. Louis, Mo.).
To examine the effect of these polyarginine (11R)-linked peptides on inhibition of the DEPDC1-ZNF224 complex formation, they were co-transfected with DEPDC1 and ZNF224 constructs into COS7 cells. […] Immunoprecipitation were performed according to methods as described in “Identification of the ZNF224-binding regions in DEPDC1 protein” section.

DLG1 = assay: Quantitative RT-PCR of downstream gene DLG1 in UM-UC-3 cells; type: cell-based, human; conditions: bladder cancer cells after peptide treatment
Procedure: UM-UC-3 cells were transfected with siRNA against DEPDC1 (si-DEPDC1), ZNF224 (si-ZNF224-2) or EGFP (control siRNA). The target sequences of the synthetic oligo-duplex for siRNA against DEPDC1 (Sigma Aldrich) were as follows: si-DEPDC1,5′-CCAAAGUUCCGUAGUCUAA-3′(SEQ ID NO: 75), ZNF224 (si-ZNF224-2) or EGFP as described in “RNA interference assay” section.
Total RNAs were extracted from each sample at 12 hours and 24 hours after the transfection, labeled with Cy5 (for si-DEPDC1- and si-ZNF224-2-transfected cells) or Cy3 (for si-EGFP-transfected cells), and subjected to cohybridization onto cDNA microarrayslides containing 36468 cDNA or ESTs as described previously (Takata R, et al., Clin Cancer Res 2005 11:2625-36). After normalization of the data, it was excluded genes from further analysis when Cy5 and Cy3 dyes yielded signals intensities lower than the cut-off value. For other genes, the Cy5/Cy3 ratio was calculated using the raw data of each samples. […] Validation of candidate downstream genes of both DEPDC1 and ZNF224 was carried out with quantitative RT-PCR analysis using the SYBR green dye (Rhoche) and the same amplified RNAs from UM-UC-3 cells used for cDNA microarray experiments, with each gene-specific primer as follows;
All experiments were performed in duplicate. The calculated quantity of the target gene for each sample was then divided by the average calculated quantity of beta 2-microglobulin (beta 2-MG) corresponding to each sample to give a relative expression of the target gene for each sample

NF-kappaB (p65) = assay: Immunocytochemical staining of nuclear NF-kappaB (p65) in UM-UC-3 cells; type: cell-based, human; conditions: UM-UC-3 cells treated with peptide for 12 hours
Procedure: For detection of NF-kappaB expression in the nucleus after treatment with dominant-negative peptide (see “Dominant-negative peptide section”), UM-UC-3 cells (1×10^5) were seeded and then treated with each peptide for 12 hours. Subsequently, immunocytochemical staining was performed using anti-NF-kappaB (p65) monoclonal antibody (diluted at 1:200) (Santa Cruz, Calif., USA). Fluorescent images and nuclear intensity of NF-kappaB (p65) protein were obtained under a TCS SP2 AOBS microscope (Leica, Tokyo, Japan). For the image analysis, the nuclear signal intensities of NF-kappaB (p65) were measured by observing nuclei of 50 cells treated with the 11R-DEP611-628 peptide or scramble peptide (see “Dominant-negative peptide section”). Assays were performed in triplicate independently.

complex formation of DEPDC1-HA and ZNF224-FLAG (immunoprecipitation) (DEPDC1-ZNF224 complex) | complex formation between exogenously expressed DEPDC1-HA and ZNF224-Flag (immunoprecipitation) (DEPDC1-ZNF224 complex) | Compound | cell viability measured by MTT assay (UM-UC-3 cells [2]) | further results
 |  | 5′-CCGATTTGGATGATGAAGA-3′ [si-ZNF224-1] |  | amount of ZNF224 transcript (knockdown effect) (ZNF224 transcript): significantly suppressed; growth of UM-UC-3 cell (MTT and colony-formation assays) (UM-UC-3 cells [1]): marked suppression growth
 |  | CC[C@H](C)[C@H](NC(=O)[C@H](CCSC)NC(=O)[C@H](CCCNC(=N)N)NC(=O)[C@H](CCSC)NC(=O)[C@H](CC(C)C)NC(=O)[C@H](CC(C)C)NC(=O)[C@H](CCC(N)=O)NC(=O)[C@H](CC(C)C)NC(=O)[C@H](CCCCN)NC(=O)[C@H](CCCNC(=N)N)NC(=O)[C@H](CCCNC(=N)N)NC(=O)[C@H](CC(N)=O)NC(=O)[C@@H]1CCCN1C(=O)[C@@H]1CCCN1C(=O)CNC(=O)CNC(=O)CNC(=O)[C@H](CCCNC(=N)N)NC(=O)[C@H](CCCNC(=N)N)NC(=O)[C@H](CCCNC(=N)N)NC(=O)[C@H](CCCNC(=N)N)NC(=O)[C@H](CCCNC(=N)N)NC(=O)[C@H](CCCNC(=N)N)NC(=O)[C@H](CCCNC(=N)N)NC(=O)[C@H](CCCNC(=N)N)NC(=O)[C@H](CCCNC(=N)N)NC(=O)[C@H](CCCNC(=N)N)NC(=O)[C@@H](N)CCCNC(=N)N)C(=O)N[C@@H](CO)C(=O)N[C@@H](CCCNC(=N)N)C(=O)N[C@@H](CCSC)C(=O)N[C@@H](CO)C(=O)O [11R-DEP611-628, RRRRRRRRRRR-GGG-PPNRRKLQLLMRMISRMS] (H-RRRRRRRRRRRGGGPPNRRKLQLLMRMISRMS-OH) |  | cell viability measured by MTT assay (NHDF-Ad cells): no significant effect on cell viability; cell viability measured by MTT assay (NHDF-Ad cells; listed as DEPDC1611-628): no off-target effect
moderate effect | slight inhibition | RRRRRRRRRRR-GGG-AIDALQLCCLLLPPPNRR (RRRRRRRRRRRGGGAIDALQLCCLLLPPPNRR; An artificially synthesised dominant negative peptide) [11R-DEP598-615, 11R-linked DEPDC1 codons 598-615 peptide] | moderate suppress in cell viability in dose-dependent manner | 
 | no inhibition | RRRRRRRRRRR-GGG-LHDAMGTRSLMIHTFSRC (RRRRRRRRRRRGGGLHDAMGTRSLMIHTFSRC; An artificially synthesised dominant negative peptide) [11R-DEP636-653, 11R-linked DEPDC1 codons 636-653 peptide] |  | 
no effect | not inhibit | RRRRRRRRRRR-GGG-LRMSRLSPNMIMQRPKRL (RRRRRRRRRRRGGGLRMSRLSPNMIMQRPKRL; An artificially synthesised dominant negative peptide) [scramble611-628] | no effect | cell growth or cellular morphology (UM-UC-3 cells [2]; cells treated with peptide, FIG. 5D): no alterations in cell growth or cellular morphology; expression of DLG1 (quantitative RT-PCR) (DLG1): not; nuclear-staining of NF-kappa B (p65) protein (NF-kappaB (p65)): no effect
